The target in this test is JAK1 (Homo sapiens (Human), UniProt P23458). As to the kind of experiment: Analysis of JAK1 activity inhibition ability (ADP-Glo Kinase Assay). The class given is biochemical. To be noted: JAK1 enzyme, ADP-Glo luminescence, ATP 250 uM, IRS-itide substrate, 30° C. 40 minutes; read-out: IC50. As to the method:
Test Example 1: Analysis of JAK1 Activity Inhibition Ability of Compound of Formula 1 (ADP-Glo™ Kinase Assay)
A JAK inhibition ability of a compound according to the present invention was identified as follows.
A control material and a test material were prepared for each concentration, in such a way that they were diluted by means of DMSO. At the same time, ATP (250 uM) and JAK substrate (JAK1, IRS-itide 40 ng/mL) were prepared, in such a way that they were diluted by means of kinase buffer (40 mM Tris-HCl pH 7.5, 20 mM MgCl2, 0.5 mg/mL BSA, 50 uM DTT).
A test drug for each concentration, substrate, ATP and JAK enzyme were mixed in an eppendorf tube, and reacted in a 30° C. incubator for 40 minutes.
ADP-Glo™ reagent contained in ADP-Glo™ Kinase Enzyme System (Promega, USA, V9571) was added into each eppendorf tube, and reacted in a 30° C. incubator for 40 minutes. A kinase detection reagent contained in ADP-Go™ Kinase Enzyme System was inserted into the eppendorf tube, then an integration time was set to 1 second by using Wallac Victor 2™, then luminescence was measured, and then JAKs phosphorylation inhibition ability of the test material was analyzed. The concentration of the compound, which causes 50% of the JAK enzyme activity inhibition in comparison With the control group, was determined as IC50 (nM) of an inhibitor, wherein the results thereof are shown in a following table 1.
JAK1, sequence (P23458 whole entry): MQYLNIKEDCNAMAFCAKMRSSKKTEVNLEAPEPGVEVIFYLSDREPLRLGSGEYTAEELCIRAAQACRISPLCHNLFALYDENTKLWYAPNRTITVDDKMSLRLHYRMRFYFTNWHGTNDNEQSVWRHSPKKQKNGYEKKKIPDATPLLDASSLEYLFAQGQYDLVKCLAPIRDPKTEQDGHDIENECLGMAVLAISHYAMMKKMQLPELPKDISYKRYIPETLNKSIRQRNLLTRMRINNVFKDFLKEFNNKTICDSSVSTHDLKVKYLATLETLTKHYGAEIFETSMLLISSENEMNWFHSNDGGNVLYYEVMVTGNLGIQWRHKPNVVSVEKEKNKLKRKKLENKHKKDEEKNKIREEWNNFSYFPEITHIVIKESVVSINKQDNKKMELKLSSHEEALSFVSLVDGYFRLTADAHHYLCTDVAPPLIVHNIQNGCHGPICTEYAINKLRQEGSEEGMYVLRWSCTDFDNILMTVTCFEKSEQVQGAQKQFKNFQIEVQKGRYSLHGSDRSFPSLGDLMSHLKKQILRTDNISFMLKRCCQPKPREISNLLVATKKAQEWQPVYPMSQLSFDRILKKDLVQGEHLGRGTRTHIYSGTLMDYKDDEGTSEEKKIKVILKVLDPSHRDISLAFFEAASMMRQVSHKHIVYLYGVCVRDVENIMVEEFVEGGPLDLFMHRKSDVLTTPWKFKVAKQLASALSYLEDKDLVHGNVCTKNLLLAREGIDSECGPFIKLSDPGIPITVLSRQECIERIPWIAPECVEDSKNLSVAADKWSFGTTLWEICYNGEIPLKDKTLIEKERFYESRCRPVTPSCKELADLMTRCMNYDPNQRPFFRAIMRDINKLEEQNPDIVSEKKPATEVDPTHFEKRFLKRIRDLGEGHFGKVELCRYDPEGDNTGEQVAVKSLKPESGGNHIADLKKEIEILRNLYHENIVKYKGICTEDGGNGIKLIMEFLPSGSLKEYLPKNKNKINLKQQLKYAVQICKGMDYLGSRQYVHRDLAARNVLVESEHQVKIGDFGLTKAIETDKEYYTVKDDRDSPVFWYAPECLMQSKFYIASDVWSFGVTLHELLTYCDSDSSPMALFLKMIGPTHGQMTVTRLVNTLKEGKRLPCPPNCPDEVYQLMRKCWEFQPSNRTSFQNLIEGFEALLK
As usually defined, the IC50 is the concentration needed to halve the response being measured. As to `O=C(Nc1cc(C2=CC3CCCC(C2)N3C(=O)c2cccc(Br)c2)c2cc[nH]c2n1)C1CC1` (centres unmarked) [Example 371, N-(4-(9-(3-bromobenzoyl)-9-azabicyclo[3.3.1]non-2-en-3-yl)-1H-pyrrolo[2,3-b]pyridin-6-yl)cyclopropanecarboxamide], the IC50 lay in the range of 20 to 200 nM. Consider `CCC1CC(c2cc(NC(=O)C3CC3)nc3[nH]ccc23)=CCN1C(=O)CC#N` (centres unmarked) [Example 413, N-(4-(1-(2-cyanoacetyl)-2-ethyl-1,2,3,6-tetrahydropyridin-4-yl)-1H-pyrrolo[2,3-b]pyridin-6-yl)cyclopropanecarboxamide], for which the IC50 is < 20 nM.

Consider `N#CC1CCN(C(=O)Cc2ccc(-c3cc(NC(=O)C4CC4)nc4[nH]ccc34)cc2)C1` (centres unmarked) [Example 567, N-(4-(4-(2-(3-cyanopyrrolidin-1-yl)-2-oxoethyl)phenyl)-1H-pyrrolo[2,3-b]pyridin-6-yl)cyclopropanecarboxamide], for which the IC50 was 20 to 200 nM. `N#CC1(CS(=O)(=O)N2CC=C(c3cc(NC(=O)C4CC4)nc4[nH]ccc34)C2)CC1` [Example 213, N-(4-(1-(((1-cyanocyclopropyl)methyl)sulfonyl)-2,5-dihydro-1H-pyrrol-3-yl)-1H-pyrrolo[2,3-b]pyridin-6-yl)cyclopropanecarboxamide]: the IC50 is > 200 nM. For `N#CC1(CS(=O)(=O)N2CC=C(c3cc(NC(=O)C4CC4)nc4[nH]ccc34)CC2)CC1` [Example 172, N-(4-(1-(((1-cyanocyclopropyl)methyl)sulfonyl)-1,2,3,6-tetrahydropyridin-4-yl)-1H-pyrrolo[2,3-b]pyridin-6-yl)cyclopropanecarboxamide], the IC50 was in the range of 20 to 200 nM.

`O=C(Nc1nc(-c2ccc(NCc3ccc(F)cc3)cc2)c2cc[nH]c2n1)C1CC1` [Example 473, N-(4-(4-((4-fluorobenzyl)amino)phenyl)-7H-pyrrolo[2,3-d]pyrimidin-2-yl)cyclopropanecarboxamide]: the concentration for half-maximal inhibition (IC50) is < 20 nM.

For `O=C(Nc1cc(-c2ccc(NC3CCN(C(=O)Nc4ccc(F)cc4F)CC3)c(F)c2)c2cc[nH]c2n1)C1CC1` [Example 501, 4-((4-(6-(cyclopropanecarboxamido)-1H-pyrrolo[2,3-b]pyridin-4-yl)-2-fluorophenyl)amino)-N-(2,4-difluorophenyl)piperidine-1-carboxamide], the half-inhibitory concentration (IC50) lay within 20 to 200 nM.

Regarding `CCCS(=O)(=O)Nc1ccc(-c2cc(NC(=O)C3CC3)nc3[nH]ccc23)c(C)c1C` [Example 132, N-(4-(2,3-dimethyl-4-(propylsulfonamido)phenyl)-1H-pyrrolo[2,3-b]pyridin-6-yl)cyclopropanecarboxamide], the IC50 lay in the range of 20 to 200 nM. In the case of `CN(C1CC1)S(=O)(=O)Nc1ccc(-c2cc(NC(=O)C3CC3)nc3[nH]ccc23)cc1` [Example 217, N-(4-(4-((N-cyclopropyl-N-methylsulfamoyl)amino)phenyl)-1H-pyrrolo[2,3-b]pyridin-6-yl)cyclopropanecarboxamide], the IC50 is < 20 nM.

Consider `CS(=O)(=O)N1CC(n2cc(-c3cc(NC(=O)C4CC4)nc4[nH]ccc34)cn2)C1` [Example 603, N-(4-(1-(1-(methylsulfonyl)azetidin-3-yl)-1H-pyrazol-4-yl)-1H-pyrrolo[2,3-b]pyridin-6-yl)cyclopropanecarboxamide], for which the IC50 fell in the range of 20 to 200 nM. With `N#CC1(C(=O)N2CC=C(c3cc(NC(=O)C4CC4)nc4[nH]ccc34)CC2)CC1` [Example 259, N-(4-(1-(1-cyanocyclopropane-1-carbonyl)-1,2,3,6-tetrahydropyridin-4-yl)-1H-pyrrolo[2,3-b]pyridin-6-yl)cyclopropanecarboxamide], the IC50 was > 200 nM. Regarding `CC1(CN2CC=C(c3cc(NC(=O)C4CC4)nc4[nH]ccc34)CC2)COC1` [Example 487, N-(4-(1-((3-methyloxetan-3-yl)methyl)-1,2,3,6-tetrahydropyridin-4-yl)-1H-pyrrolo[2,3-b]pyridin-6-yl)cyclopropanecarboxamide], the IC50 was > 200 nM. Consider `Cc1cc(NC(=O)CC#N)ccc1-c1cc(NC(=O)C2CC2)nc2[nH]ccc12` [Example 240, N-(4-(4-(2-cyanoacetamido)-2-methylphenyl)-1H-pyrrolo[2,3-b]pyridin-6-yl)cyclopropanecarboxamide], for which the IC50 was > 200 nM. The result for `CC1CN(C(=O)c2ccc(F)c(F)c2)CC=C1c1cc(NC(=O)C2CC2)nc2[nH]ccc12` (centres unmarked) [Example 311, N-(4-(1-(3,4-difluorobenzoyl)-3-methyl-1,2,3,6-tetrahydropyridin-4-yl)-1H-pyrrolo[2,3-b]pyridin-6-yl)cyclopropanecarboxamide] reads 20 to 200 nM; that for `N#CCCN1CC=C(c2cc(NC(=O)C3CC3)nc3[nH]ccc23)C1` [Example 485, N-(4-(1-(2-cyanoethyl)-2,5-dihydro-1H-pyrrol-3-yl)-1H-pyrrolo[2,3-b]pyridin-6-yl)cyclopropanecarboxamide], 20 to 200 nM.

For `Cc1cnc(C(=O)N2CC=C(c3cc(NC(=O)C4CC4)nc4[nH]ccc34)C(C)C2)cn1` (centres unmarked) [Example 344, N-(4-(3-methyl-1-(5-methylpyrazine-2-carbonyl)-1,2,3,6-tetrahydropyridin-4-yl)-1H-pyrrolo[2,3-b]pyridin-6-yl)cyclopropanecarboxamide], the IC50 is > 200 nM. For the compound `O=C(Nc1cc(-c2ccc(NS(=O)(=O)C3CC3)cc2)c2cc[nH]c2n1)C1CC1` [Example 57, N-(4-(4-(cyclopropanesulfonamido)phenyl)-1H-pyrrolo[2,3-b]pyridin-6-yl)cyclopropanecarboxamide], the IC50 was < 20 nM.

For `C[C@@H]1CN(C(=O)C(=Cc2ccccc2)CC#N)CC=C1c1cc(NC(=O)C2CC2)nc2[nH]ccc12` [Example 404, (S)—N-(4-(1-(2-(cyanomethyl)-3-phenylacryloyl)-3-methyl-1,2,3,6-tetrahydropyridin-4-yl)-1H-pyrrolo[2,3-b]pyridin-6-yl)cyclopropanecarboxamide], the half-maximal inhibitory concentration (IC50) lay within 20 to 200 nM.

As for `CCNC(=O)Nc1ccc(-c2nc(NC(=O)C3CC3)nc3[nH]ccc23)cc1` [Example 438, N-(4-(4-(3-ethylureido)phenyl)-7H-pyrrolo[2,3-d]pyrimidin-2-yl)cyclopropanecarboxamide], the half-maximal inhibitory concentration (IC50) was > 200 nM.

As to `O=C(Nc1cc(-c2ccc(CC(=O)N3CCS(=O)(=O)CC3)c(F)c2)c2cc[nH]c2n1)C1CC1` [Example 559, N-(4-(4-(2-(1,1-dioxidothiomorpholino)-2-oxoethyl)-3-fluorophenyl)-1H-pyrrolo[2,3-b]pyridin-6-yl)cyclopropanecarboxamide], the IC50 lay in the range of 20 to 200 nM. On to `N#CCC(=O)N1C2CCC1CN(c1cc(NC(=O)C3CC3)nc3[nH]ccc13)C2` [Example 677, N-(4-(8-(2-cyanoacetyl)-3,8-diazabicyclo[3.2.1]octan-3-yl)-1H-pyrrolo[2,3-b]pyridin-6-yl)cyclopropanecarboxamide], for which the half-inhibitory concentration (IC50) was < 20 nM. With `N#CCNC(=O)c1c(F)cc(-c2cc(NC(=O)C3CC3)nc3[nH]ccc23)cc1F` [Example 529, N-(cyanomethyl)-4-(6-(cyclopropanecarboxamido)-1H-pyrrolo[2,3-b]pyridin-4-yl)-2,6-difluorobenzamide] the figure was 20 to 200 nM; with `O=C(Nc1cc(C2=CCN(C(=O)NC(C3CC3)C(F)(F)F)CC2)c2cc[nH]c2n1)C1CC1` (centres unmarked) [Example 450, 4-(6-(cyclopropanecarboxamido)-1H-pyrrolo[2,3-b]pyridin-4-yl)-N-(1-cyclopropyl-2,2,2-trifluoroethyl)-3,6-dihydropyridine-1 (2H)-carboxamide], > 200 nM; with `O=C(Nc1cc(-c2ccc(NS(=O)(=O)C3CCCCC3)cc2)c2cc[nH]c2n1)C1CC1` [Example 7, N-(4-(4-(cyclohexanesulfonamido)phenyl)-1H-pyrrolo[2,3-b]pyridin-6-yl)cyclopropanecarboxamide], < 20 nM. Turning to `N#CCNC(=O)c1ccc(-c2cc(NC(=O)C3CC3)nc3[nH]ccc23)cc1F` [Example 528, N-(cyanomethyl)-4-(6-(cyclopropanecarboxamido)-1H-pyrrolo[2,3-b]pyridin-4-yl)-2-fluorobenzamide], the IC50 lay in the range of 20 to 200 nM. With `O=C(Nc1cc(C2=CC3CCCC(C2)N3C(=O)c2ccncc2F)c2cc[nH]c2n1)C1CC1` (centres unmarked) [Example 369, N-(4-(9-(3-fluoroisonicotinoyl)-9-azabicyclo[3.3.1]non-2-en-3-yl)-1H-pyrrolo[2,3-b]pyridin-6-yl)cyclopropanecarboxamide] the figure was 20 to 200 nM. In the case of `CN(C)c1nc(-c2ccc(NS(=O)(=O)c3ccc(F)c(F)c3)cc2)c2cc[nH]c2n1` [Example 718, N-(4-(2-(dimethylamino)-7H-pyrrolo[2,3-d]pyrimidin-4-yl)phenyl)-3,4-difluorobenzenesulfonamide], the IC50 was > 200 nM. With `N#CC1(CS(=O)(=O)Nc2cc(F)c(-c3cc(NC(=O)C4CC4)nc4[nH]ccc34)cc2F)CC1` [Example 105, N-(4-(4-(((1-cyanocyclopropyl)methyl)sulfonamido)-2,5-difluorophenyl)-1H-pyrrolo[2,3-b]pyridin-6-yl)cyclopropanecarboxamide] the figure was < 20 nM; with `CCCS(=O)(=O)Nc1ccc(-c2cc(NC(=O)C3CC3)nc3[nH]ccc23)cc1C` [Example 65, N-(4-(3-methyl-4-(propylsulfonamido)phenyl)-1H-pyrrolo[2,3-b]pyridin-6-yl)cyclopropanecarboxamide], < 20 nM.

The values above are taken from patent US11524968B2, “Heterocyclic compound as a protein kinase inhibitor” (HK inno.N Corporation, priority 2017, dated 2022).
